Laboratory results published in ChEMBL document CHEMBL1133266, “Effects of 2-(substituted-sulfanyl)-3,5-dihydro-imidazole-4-one and 2-(substituted-sulfanyl)-1H-imidazole-4,5-dione derivatives on serum HDL-cholesterol” (2000).

Legend:
Assay type in all cases: functional
[1] = system: Rattus norvegicus; assay: Increase of high density lipoprotein cholesterol (HDL-C) in cholesterol fed male rats after treatment for 8 days at a dose of 100 mg/kg/day; Average % HDL-C change in 6 animals
[2] = system: Rattus norvegicus; assay: Compound was evaluated in vivo for the increase of very low density lipoprotein cholesterol (VLDL-C) in cholesterol fed male rats
[3] = system: Rattus norvegicus; assay: Compound was evaluated for increase of high density lipoprotein cholesterol (HDL-C) in cholesterol fed male rats after treatment for 8 days at a dose of 80 mg/kg/day; Average % HDL-C change in 6 animals

Row | SMILES | Change [1] [%] | Increase [2] [%] | Change [3] [%]
1 | CCSC1=NCC(=O)N1c1ccc(Cl)cc1C | 39 | – | –
2 | CCSC1=NCC(=O)N1c1cc(Cl)ccc1C | 153 | – | –
3 | CCSC1=NCC(=O)N1c1c(Cl)cccc1Cl | 169 | – | –
4 | CCSC1=NCC(=O)N1c1ccccc1Cl | 74 | – | –
5 | CCSC1=NC(=O)C(=O)N1c1ccccc1C | 48 | – | –
6 | CCSC1=NCC(=O)N1c1ccccc1C | 139 | 78 | –
7 | CCSC1=NCC(=O)N1c1c(C)cccc1C | 75 | – | –
8 | CCSC1=NCC(=O)N1c1c(C)cccc1Cl | 71 | – | –
9 | CCSC1=NCC(=O)N1c1ccc(C)c(Cl)c1 | 45 | – | –
10 | CCSC1=NCC(=O)N1c1cc(F)ccc1C | 32 | – | –
11 | CCSC1=NC(C)C(=O)N1c1cc(Cl)ccc1C (stereo not drawn) | 211 | – | –
12 | CCSC1=NCC(=O)N1c1ccc(F)cc1 | – | – | 140
13 | Cc1ccc(Cl)cc1N1C(=O)CN=C1SCc1ccccc1 | 102 | – | –
14 | CCSC1=NCC(=O)N1c1cc(Cl)ccc1OC | 66 | – | –
15 | CCSC1=NCC(=O)N1c1ccccc1 | 89 | – | –
16 | CCSC1=NC(=O)C(=O)N1c1cc(Cl)ccc1C | 85 | – | –
17 | CCSC1=NCC(=O)N1c1cccc(Cl)c1C | 26 | – | –
